In patent US20100240746A1, “STEREOISOMERS OF TRICYCLODECAN-9-YL-XANTHOGENATE” (LUMAVITA AG, priority 2007, published 2010):
In brackets after ≈: the same amount, converted by molar mass.

Experiments:
[1] = tested on: phosphatidylcholine-specific phospholipase C (PC-PLC); settings: Gonzalez-Roura et al.; comparison between diastereomers; cited from earlier work
[2] = tested on: Herpes simplex virus type-2 (HSV-2); assay: Inhibition of HSV-2 (plaque assay; Calu-6 infected, RITA cells for plaques); format: cell-based
Description: (§1) Calu-6 cells and RITA cells were grown in DMEM cell culture medium containing 10% fetal calf serum in CO2 incubator under 5% CO2 at 37° C. with 100% humidity.
(§2) For HSV-2 inhibition, Calu-6 cells were seeded in 96 well plates at a density of 3×10^6 cells per plate in the DMEM cell culture medium. The plates were incubated at 37° C. in the presence of 5% CO2 for 24 hr. The DMEM cell culture medium in the plates was removed and the cells were infected with Herpes simplex virus type-2 at 50 plaque forming units per well. After incubation at 37° C. for 60 min, test compounds in DMEM cell culture medium at a series of concentrations were added. The plates were incubated at 37° C. in the presence of 5% CO2 for 48 hr. The plates were frozen at −20° C. prior to further analysis. After thawing at room temperature, supernatants containing infectious virus particles were prepared by centrifuging the supernatant from each well at 18,000 g at 4° C. for 5 min. The supernatant was further diluted before assay.
RITA cells were seeded in 24 well Linbra plates at a density of 4×10^6 cells per plate in 2 mL of DMEM cell culture medium. The plates were incubated at 37° C. in the presence of 5% CO2 for 24 hr. After the removal of the cell culture medium, 0.1 mL of the diluted supernatants was added and the plates were incubated at 37 C for 1 hr. DMEM cell medium containing 10% fetal calf serum and 0.5% methyl cellulose was added and the plates were incubated at 37 for 48 hr. The plates were then washed with PBS, fixed with 3% formaldehyde solution containing 0.9% NaCl for 1 min, washed by water for 10 sec, and dried overnight. For detection, the plates were then stained with crystal violet solution for 5 min at room temperature, washed 5 times with water, and dried at room temperature overnight. The number of plaques was determined macroscopically. The number of plaques per well was then multiplied with the dilution factor. Dose response curves were obtained by plotting the number of plaques/0.1 mL against compound concentration. The therapeutic index was also calculated for each compound by dividing LD50 with IC50.

[3] = molecular target: T1, B. cereus PC-PLC (phosphatidylcholine-specific phospholipase C) (Bacillus cereus, UniProt P09598); assay: Inhibition of phosphatidylcholine-specific phospholipase C (Amplex Red PC-PLC assay kit); format: biochemical; settings: 30 min at 37° C., 0.2 U/mL PC-PLC solution, triplicate
T1 construct: purchased Invitrogen
Description: (§3) The inhibitory activities of optically active potassium salts of (+)- and (−)-O-exo/C-exo-tricyclo [5.2.1.0^2,6]-dec-9-yl-xanthic acid 1A ((+)- and (−)-enantiomers 1A) against phosphatidylcholine-specific phospholipase C were evaluated, together with D609 and potassium salt of racemic O-exo/C-exo xanthic acid 1A (racemic 1A), using Amplex Red phosphatidylcholine-specific phospholipase C(PC-PLC) assay kit, which was obtained from Invitrogen (Calsbad, Calif.). D609 was obtained from Sigma Aldrich.
(§4) An Amplex Red stock solution (˜20 mM), a working reaction buffer, and a horseradish peroxidase stock solution (200 U/mL), a H2O2 working solution (20 mM), a choline oxidate stock solution (20 U/mL), an alkaline phosphatase stock solution (400 U/mL), and a B. cereus PC-PLC stock solution (10 U/mL) were prepared according to the instruction of the assay kit. The stock solution (100 mg/mL) for each test compound was also prepared by dissolving the compound in water 2 hr prior to the start of the experiment.
(§5) A working Amplex Red/HRP/lecithin solution was prepared by adding 200 μL of Amplex Red reagent stock solution, 100 μL of HRP stock solution, 200 μL of alkaline phosphatase stock solution, 100 μL of choline oxidase stock solution, and 78 μL of the lecithin solution to […] of the working reaction buffer. PC-PLC solution (0.2 U/mL) was prepared by diluting the PC-PLC stock solution with the working reaction buffer to the desired concentration.
The test compound (25 μL) at a serious of concentrations was pipetted into a 96 well plate. For uninhibited PC-PLC controls and non-PC-PLC controls, 25 μL of water was added. After the addition of 50 μL of the Amplex Red/HRP/lecithin working solution, the reaction was initiated by adding 25 μL of PC-PLC solution to each well. […] After incubated for 30 min at 37° C., the reactions were measured with a fluorescence microplate reader using excitation at 550 nm and emission detection at 590 nm. The fluorescent data obtained were corrected for background fluorescence by subtracting the values obtained from the non-PC-PLC controls.

[4] = tested on: bovine papilloma virus type I (BPV-1)-transformed HEF (HEF-BPV); assay: Inhibition of bovine papilloma virus, BPV-infected hamster embryo fibroblasts (HEF) cell proliferation assay; format: cell-based; settings: Bos taurus papillomavirus 1, HEF, 72 h, pH 6.8, HEF-BPV, 37° C., read-out: IC50
Description: Briefly, hamster embryo fibroblasts and bovine papilloma virus type I (BPV-1)-transformed HEF (HEF-BPV) were grown in Eagle's basal medium. […] and HEF cells were seeded in 96-well plates at a density of 0.5×10^6 cells per plate in DMEM cell culture medium containing 10% fetal calf serum at pH 6.8. The plates were then incubated in the presence of 5% CO2 in 100% humidity at 37° C. After 6 hr, the cell culture medium in the plates was exchanged with fresh DMEM cell culture medium containing test compounds at a series of concentrations. The plates were incubated at 37° C. for additional 72 hr. Cells in the plates were then washed with PBS, fixed with 3% formaldehyde solution containing 0.9% NaCl for 1 min, washed by water for 10 sec, and dried overnight. For detection, the plates were stained with crystal violet solution for 5 min at room temperature, washed 5 times with water, and dried at room temperature overnight. After adding ethanol/acetic acid (99:1, v/v, […]) to each well, the plates were measured at 595 nm using an ELISA reader.

Calu-6 cells = assay: Cytotoxicity assay in Calu-6 cells (crystal violet); format: cell-based; settings: 48 hr
Description: as §1
For cytotoxicity assay, Calu-6 cells were seeded in 96 well plates at a density of 3×10^6 cells per plate in the DMEM cell culture medium. The plates were incubated at 37° C. in the presence of 5% CO2 for 24 hr. The DMEM cell culture medium in the plates was exchanged with fresh DMEM cell culture medium containing test compounds at a series of concentrations. The plates were incubated at 37° C. in the presence of 5% CO2 for 48 hr. The plates were then washed with PBS, fixed with 3% formaldehyde solution containing 0.9% NaCl for 1 min, washed by water for 10 sec, and dried overnight. For detection, the plates were stained with crystal violet solution for 5 min at room temperature, washed 5 times with water, and dried at room temperature overnight. After adding ethanol/acetic acid (99:1, v/v, […]) to each well, the plates were measured at 595 nm using an ELISA reader. A dose response curve was obtained for each compound tested by plotting the mean values of the optical densities against compound concentration.

[5] = molecular target: T2, phosphatidylcholine-specific phospholipase C (PC-PLC) (Bacillus cereus, UniProt P09598); assay: Amplex Red phosphatidylcholine-specific phospholipase C (PC-PLC) inhibition assay; format: biochemical, B. cereus; settings: 30 min at 37° C., triplicate
T2 construct: purchased Invitrogen
Description: as §3, §4, §5
The test compound (25 μL) at a serious of concentrations was pipetted into a 96 well plate. For uninhibited PC-PLC controls and non-PC-PLC controls, 25 μL of water was added. After the addition of 50 μL of the Amplex Red/HRP/lecithin working solution, the reaction was initiated by adding 25 μL of PC-PLC solution to each well. To the non-PC-PLC controls, 25 μL of water was added instead of PC-PLC solution. The experiment was performed in triplicate. The reactions were protected from light. After incubated for 30 min at 37° C., the reactions were measured with a fluorescence microplate reader using excitation at 550 nm and emission detection at 590 nm. The fluorescent data obtained were corrected for background fluorescence by subtracting the values obtained from the non-PC-PLC controls.

[6] = tested on: herpes simplex virus type 2; assay: HSV-2 inhibition in Calu-6 cells, plaque titration on RITA cells; format: cell-based; settings: Human alphaherpesvirus 2, Calu-6; 48 hr, 50 plaque forming units per well
Description: as §1, §2
RITA cells were seeded in 24 well Linbra plates at a density of 4×10^6 cells per plate in 2 mL of DMEM cell culture medium. The plates were incubated at 37° C. in the presence of 5% CO2 for 24 hr. […] The number of plaques was determined macroscopically. […] The therapeutic index was also calculated for each compound by dividing LD50 with IC50.

[7] = tested on: HPV-31-infected CIN612 9E keratinocytes; assay: Short-term study: growth of HPV-31-infected CIN612 9E keratinocytes (crystal violet); format: cell-based; settings: at 200 UI/mL, 72 hrs
Description: The inhibitory activities of optically active (−)-enantiomer 1A against human papilloma virus were evaluated using HPV-31-infected CIN612 9E keratinocytes (Meyers et al., Science 1992, 257, 971-973).
Effect on cell proliferation. HPV-31 infected cells were seeded in 96-well plates containing 1×10^6 mitomycin C treated 3T3 cells (1×10^4 cells/well), at a density of 0.5×10^6 cells per plate (0.5×10^4 cells/well) in E medium. After the plates were incubated in a CO2 incubator under 5% CO2 at 37° C. in 100% humidity for six hrs, the cell culture medium was removed and fresh E medium containing 0.85 g/L NaHCO3 and a test compound at a series of concentrations (0, 0.5, 1, 2, 4, 8, 16, 32, 64, and 128 μg/mL), or positive control (interferon γ at 200 IU/mL) was added. […] After the plates were dried on blotting paper upside down overnight, 0.1 mL of ethanol/acetic acid (99:1) was added to each well and optical density at 595 nm was determined in an ELISA reader.
Dose response curves were established by plotting growth against concentrations of the test compound or control. ICso values were determined from the dose response curves from crossing points of the dose response curves with a line parallel to the x-axis corresponding to 50% of uninhibited growth.

HPV-31 specific RNA = assay: Long-term study: HPV-31 specific RNA level (Northern blot); format: cell-based, human papilloma virus; settings: at 200 IU/mL
Description: (§6) HPV-31 infected cells (3×10^6) were dispensed into 14.5 cm dishes containing fresh E medium and 1×10^6 cells of mitomycin C-treated 3T3 fibroblast feeders. The dishes were incubated in a CO2 incubator under 5% CO2 at 37° C. in 100% humidity. Human A431 epithelial cancer cells were used as HPV-uninfected negative controls. After 6 hr incubation, the cell culture medium was removed and fresh E medium containing 0.85 g/L NaHCO3 and a test compound at concentrations of 10 and 3.3 μg/mL, or control (interferon γ at 200 IU/mL) were added. For each concentration, 4 dishes were prepared. The dishes were incubated at 37° C. in a CO2 incubator. The culture medium was replaced to new E medium containing each concentration of the test compound or control in every 72 hrs. After seven days, or when untreated cells became confluent, one dish of each group was harvested for DNA/RNA extraction, followed by Southern/Northern Blot analysis; and one dish was trypsinized, cell number were determined and cells were seeded in three new dishes, treated and cultured as described above. This procedure was repeated for 9 passages. During these passages, morphology of cells and cell density were monitored.
(§7) Effect on HPV-31 specific DNA and RNA: DNA and RNA were analyzed in Southern and Northern Blot gels for HPV-31 specific sequences. X-ray films were scanned and optical densities of HPV-31 specific DNA and major mRNA species were integrated. Time curves were established by plotting integrated values against number of passages for each treatment dose. The T50 (time required to reduce the level to 50% of control) was determined from the time curves from crossing points of time curves with a line parallel to the x-axis corresponding to 50% of integrals of untreated control sample.

[8] = tested on: HPV-31-infected CIN612 9E keratinocytes; assay: Long-term study: cell proliferation and morphology of CIN612 9E cells over 9 passages; format: cell-based; settings: 200 IU/mL
Description: as §6
Effect on cell proliferation. Cell numbers in the dishes harvested were determined in a Neubauer hematocytometer. The multiplication factor was determined at every step of passage. The cell number of each culture at the end of the passage was divided by the number of seeded cells at the start of each passage. The end point was reached when keratinocytes treated with a test compound stopped growing. Stop of cell growth was defined as a multiplication factor of no greater than 1.

HPV-31 specific DNA = assay: Long-term study: HPV-31 specific DNA level (Southern blot); format: cell-based, human papilloma virus; settings: at 200 IU/mL
Description: as §6, §7

T2 sequence (P09598 39-283 limits assumed): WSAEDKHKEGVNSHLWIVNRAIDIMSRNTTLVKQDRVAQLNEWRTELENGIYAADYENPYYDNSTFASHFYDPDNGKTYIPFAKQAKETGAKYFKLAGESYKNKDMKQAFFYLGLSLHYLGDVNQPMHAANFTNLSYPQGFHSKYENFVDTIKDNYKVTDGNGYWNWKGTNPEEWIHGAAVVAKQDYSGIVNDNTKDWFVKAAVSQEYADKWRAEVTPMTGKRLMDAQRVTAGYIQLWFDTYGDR
T1 sequence (P09598 39-283 limits assumed): as above

## S=C(S)OC1CC2CC1C1CCCC21 (racemic) [Racemic 1A, racemic O-exo/C-exo-tricyclo[5.2.1.0^2,6]-dec-9-yl-xanthic acid]
[1]
  inhibitory activities against PC-specific phospholipase C: no significant differences

## S=C(S)OC1CC2CC1C1CCCC21 (single isomer, unassigned; (+)) [(+)-Enantiomer 1A, (+)-O-exo/C-exo-tricyclo[5.2.1.0^2,6]-dec-9-yl-xanthic acid]
[2]; Calu-6 cells, 48 hr, 50 plaque forming units per well
  IC50: 20.97 ± 4.06 µg/mL (≈ 91.8 µM)
[2]; LD50 (Calu-6) divided by IC50 (HSV-2), 2880 min
  Therapeutic Index: 3.9
[3]
  IC50: 60.8 µM
[4]
  IC50: 19.9 ± 2.52 µg/mL (≈ 87.1 µM)

## S=C(S)OC1CC2CC1C1CCCC21 (single isomer, unassigned; enantiomer 1a) [(+)-Enantiomer 1A, (+)-O-exo/C-exo-tricyclo[5.2.1.0^2,6]-dec-9-yl-xanthic acid 1A]
Calu-6 cells
  LD50: 81.29 ± 4.53 µg/mL
[5]
  IC50: 13.88 ± 0.85 µg/mL (≈ 60.8 µM)

## Nc1nc2c(ncn2COCCO)c(=O)[nH]1 [Aciclovir, aciclovir]
[6]
  IC50: 1.21 ± 0.81 µg/mL (≈ 5.37 µM)

## S=C(S)OC1CC2CC1C1CCCC21 (stereo not drawn) [O-exo/C-endo 1B]
[1]
  inhibitory activities against PC-specific phospholipase C: no significant differences

B1: INF-γ: interferon γ, positive control at 200 IU/mL (protein, UniProt P01579 24-161, looked up)
Interferon gamma: QDPYVKEAENLKKYFNAGHSDVADNGTLFLGILKNWKEESDRKIMQSQIVSFYFKLFKNFKDDQSIQKSVETIKEDMNVKFFNSNKKKRDDFEKLTNYSVTDLNVQRKAIHELIQVMAELSPAAKTGKRKRSQMLFRG
[7]
  inhibition of the growth of HPV-31-infected CIN612 9E keratinocytes: about 50%
HPV-31 specific RNA
  T50 RNA: 3.36 passages
[8]; first cell passage
  multiplication factor: 0.8
[8]; second passage
  multiplication factor: 2.4
HPV-31 specific DNA
  T50 DNA: 2.7 passages
